pIC50: −log10 of the molar value.
Tested on: HCT116
Assay: In vitro cytotoxicity measured by the cell colony formation assay
Format: cell-based
Conditions: HCT116 cells, 72 h drug incubation, colonies counted after 7 days; ID50 = drug concentration producing 50% inhibition of colony formation; read-out: IN VITRO ID 50 (nm) HCT116
Description: In Vitro Cytotoxicity Measured by the Cell Colony Formation Assay
Four hundred cells (HCT116) were plated in 60 mm Petri dishes containing 2.7 mL of medium (modified McCoy's 5a medium containing 10% fetal bovine serum and 100 units/mL penicillin and 100 µg/mL streptomycin). The cells were incubated in a CO2 incubator at 37° C. for 5 h for attachment to the bottom of Petri dishes. The compounds identified in Example 2 were made up fresh in medium at ten times the final concentration, and then 0.3 mL of this stock solution was added to the 2.7 mL of medium in the dish. The cells were then incubated with drugs for 72 h at 37° C. At the end of incubation the drug-containing media were decanted, the dishes were rinsed with 4 mL of Hank's Balance Salt Solution (HBSS), 5 mL of fresh medium was added, and the dishes were returned to the incubator for colony formation. The cell colonies were counted using a colony counter after incubation for 7 days.

Compound	pIC50
CCC(=O)O[C@H]1C(=O)[C@@]2(C)C([C@H](OC(=O)c3ccccc3)[C@]3(O)C[C@H](OC(=O)[C@H](O)[C@H](C=C(C)C)NC(=O)OC(C)(C)C)C(C)=C1C3(C)C)[C@]1(OC(C)=O)CO[C@@H]1C[C@@H]2O (stereo partly drawn) [Compound 0499]	> 9.00
CCC(=O)O[C@H]1C(=O)[C@@]2(C)C([C@H](OC(=O)c3ccccc3)[C@]3(O)C[C@H](OC(=O)[C@H](O)[C@@H](NC(=O)OC(C)(C)C)c4ccccn4)C(C)=C1C3(C)C)[C@]1(OC(C)=O)CO[C@@H]1C[C@@H]2O (stereo partly drawn) [Compound 0503]	> 9.00
CCC(=O)O[C@H]1C(=O)[C@@]2(C)C([C@H](OC(=O)c3ccccc3)[C@]3(O)C[C@H](OC(=O)[C@H](O)[C@@H](NC(=O)OC(C)(C)C)c4cccnc4)C(C)=C1C3(C)C)[C@]1(OC(C)=O)CO[C@@H]1C[C@@H]2O (stereo partly drawn) [Compound 0517]	> 8.00
CCC(=O)O[C@H]1C(=O)[C@@]2(C)C([C@H](OC(=O)c3ccccc3)[C@]3(O)C[C@H](OC(=O)[C@H](O)[C@@H](NC(=O)OC(C)(C)C)c4ccncc4)C(C)=C1C3(C)C)[C@]1(OC(C)=O)CO[C@@H]1C[C@@H]2O (stereo partly drawn) [Compound 0521]	> 9.00
CCC(=O)O[C@H]1C(=O)[C@@]2(C)C([C@H](OC(=O)c3ccccc3)[C@]3(O)C[C@H](OC(=O)[C@H](O)[C@@H](NC(=O)OC(C)(C)C)c4ccco4)C(C)=C1C3(C)C)[C@]1(OC(C)=O)CO[C@@H]1C[C@@H]2O (stereo partly drawn) [Compound 0536]	> 9.00
CCC(=O)O[C@H]1C(=O)[C@@]2(C)C([C@H](OC(=O)c3ccccc3)[C@]3(O)C[C@H](OC(=O)[C@H](O)[C@@H](NC(=O)OC(C)(C)C)c4ccoc4)C(C)=C1C3(C)C)[C@]1(OC(C)=O)CO[C@@H]1C[C@@H]2O (stereo partly drawn) [Compound 0549]	> 8.00
CCC(=O)O[C@H]1C(=O)[C@@]2(C)C([C@H](OC(=O)c3ccccc3)[C@]3(O)C[C@H](OC(=O)[C@H](O)[C@@H](NC(=O)OC(C)(C)C)c4cccs4)C(C)=C1C3(C)C)[C@]1(OC(C)=O)CO[C@@H]1C[C@@H]2O (stereo partly drawn) [Compound 0550]	> 8.00
CCC(=O)O[C@H]1C(=O)[C@@]2(C)C([C@H](OC(=O)c3ccccc3)[C@]3(O)C[C@H](OC(=O)[C@H](O)[C@@H](NC(=O)OC(C)(C)C)c4ccsc4)C(C)=C1C3(C)C)[C@]1(OC(C)=O)CO[C@@H]1C[C@@H]2O (stereo partly drawn) [Compound 0562]	> 9.00
CCC(=O)O[C@H]1C(=O)[C@@]2(C)C([C@H](OC(=O)c3ccccc3)[C@]3(O)C[C@H](OC(=O)[C@H](O)[C@@H](NC(=O)OC(C)(C)C)C4CC4)C(C)=C1C3(C)C)[C@]1(OC(C)=O)CO[C@@H]1C[C@@H]2O (stereo partly drawn) [Compound 0578]	> 9.00
CCC(=O)O[C@H]1C(=O)[C@@]2(C)C([C@H](OC(=O)c3ccccc3)[C@]3(O)C[C@H](OC(=O)[C@H](O)[C@@H](NC(=O)OC(C)(C)C)C(C)C)C(C)=C1C3(C)C)[C@]1(OC(C)=O)CO[C@@H]1C[C@@H]2O (stereo partly drawn) [Compound 0583]	> 8.00
CCC(=O)O[C@H]1C(=O)[C@@]2(C)C([C@H](OC(=O)c3ccccc3)[C@]3(O)C[C@H](OC(=O)[C@H](O)[C@@H](NC(=O)OC(C)(C)C)C4CCC4)C(C)=C1C3(C)C)[C@]1(OC(C)=O)CO[C@@H]1C[C@@H]2O (stereo partly drawn) [Compound 0596]	> 8.00
CCC(=O)O[C@H]1C(=O)[C@@]2(C)C([C@H](OC(=O)c3ccccc3)[C@]3(O)C[C@H](OC(=O)[C@H](O)[C@@H](NC(=O)OC(C)(C)C)c4ccc([N+](=O)[O-])cc4)C(C)=C1C3(C)C)[C@]1(OC(C)=O)CO[C@@H]1C[C@@H]2O (stereo partly drawn) [Compound 0602]	> 9.00
CCC(=O)O[C@H]1C(=O)[C@@]2(C)C([C@H](OC(=O)c3ccccc3)[C@]3(O)C[C@H](OC(=O)[C@H](O)[C@@H](NC(=O)OC(C)(C)C)c4ccccc4)C(C)=C1C3(C)C)[C@]1(OC(C)=O)CO[C@@H]1C[C@@H]2O (stereo partly drawn) [Compound 0611]	> 8.00
CCC(=O)O[C@H]1C(=O)[C@@]2(C)C([C@H](OC(=O)c3ccccc3)[C@]3(O)C[C@H](OC(=O)[C@H](O)[C@H](C=C(C)C)NC(=O)c4ccccc4)C(C)=C1C3(C)C)[C@]1(OC(C)=O)CO[C@@H]1C[C@@H]2O (stereo partly drawn) [Compound 0625]	> 9.00
CCC(=O)O[C@H]1C(=O)[C@@]2(C)C([C@H](OC(=O)c3ccccc3)[C@]3(O)C[C@H](OC(=O)[C@H](O)[C@@H](NC(=O)c4ccccc4)c4ccccn4)C(C)=C1C3(C)C)[C@]1(OC(C)=O)CO[C@@H]1C[C@@H]2O (stereo partly drawn) [Compound 0634]	> 8.00
CCC(=O)O[C@H]1C(=O)[C@@]2(C)C([C@H](OC(=O)c3ccccc3)[C@]3(O)C[C@H](OC(=O)[C@H](O)[C@@H](NC(=O)c4ccccc4)c4ccncc4)C(C)=C1C3(C)C)[C@]1(OC(C)=O)CO[C@@H]1C[C@@H]2O (stereo partly drawn) [Compound 0659]	> 9.00
CCC(=O)O[C@H]1C(=O)[C@@]2(C)C([C@H](OC(=O)c3ccccc3)[C@]3(O)C[C@H](OC(=O)[C@H](O)[C@@H](NC(=O)c4ccccc4)c4ccco4)C(C)=C1C3(C)C)[C@]1(OC(C)=O)CO[C@@H]1C[C@@H]2O (stereo partly drawn) [Compound 0663]	> 9.00

Compound	pIC50
CCC(=O)O[C@H]1C(=O)[C@@]2(C)C([C@H](OC(=O)c3ccccc3)[C@]3(O)C[C@H](OC(=O)[C@H](O)[C@@H](NC(=O)c4ccccc4)c4ccoc4)C(C)=C1C3(C)C)[C@]1(OC(C)=O)CO[C@@H]1C[C@@H]2O (stereo partly drawn) [Compound 0670]	> 9.00
CCC(=O)O[C@H]1C(=O)[C@@]2(C)C([C@H](OC(=O)c3ccccc3)[C@]3(O)C[C@H](OC(=O)[C@H](O)[C@@H](NC(=O)c4ccccc4)c4ccsc4)C(C)=C1C3(C)C)[C@]1(OC(C)=O)CO[C@@H]1C[C@@H]2O (stereo partly drawn) [Compound 0691]	> 9.00
CCC(=O)O[C@H]1C(=O)[C@@]2(C)C([C@H](OC(=O)c3ccccc3)[C@]3(O)C[C@H](OC(=O)[C@H](O)[C@@H](NC(=O)c4ccccc4)C4CC4)C(C)=C1C3(C)C)[C@]1(OC(C)=O)CO[C@@H]1C[C@@H]2O (stereo partly drawn) [Compound 0706]	> 9.00
CCC(=O)O[C@H]1C(=O)[C@@]2(C)C([C@H](OC(=O)c3ccccc3)[C@]3(O)C[C@H](OC(=O)[C@H](O)[C@@H](NC(=O)c4ccccc4)C(C)C)C(C)=C1C3(C)C)[C@]1(OC(C)=O)CO[C@@H]1C[C@@H]2O (stereo partly drawn) [Compound 0719]	> 8.00
CCC(=O)O[C@H]1C(=O)[C@@]2(C)C([C@H](OC(=O)c3ccccc3)[C@]3(O)C[C@H](OC(=O)[C@H](O)[C@@H](NC(=O)c4ccccc4)C4CCC4)C(C)=C1C3(C)C)[C@]1(OC(C)=O)CO[C@@H]1C[C@@H]2O (stereo partly drawn) [Compound 0720]	> 8.00
CCC(=O)O[C@H]1C(=O)[C@@]2(C)C([C@H](OC(=O)c3ccccc3)[C@]3(O)C[C@H](OC(=O)[C@H](O)[C@@H](NC(=O)c4ccccc4)c4ccc([N+](=O)[O-])cc4)C(C)=C1C3(C)C)[C@]1(OC(C)=O)CO[C@@H]1C[C@@H]2O (stereo partly drawn) [Compound 0732]	> 8.00
CCC(=O)O[C@H]1C(=O)[C@@]2(C)C([C@H](OC(=O)c3ccccc3)[C@]3(O)C[C@H](OC(=O)[C@H](O)[C@@H](NC(=O)c4ccccc4)c4ccccc4)C(C)=C1C3(C)C)[C@]1(OC(C)=O)CO[C@@H]1C[C@@H]2O (stereo partly drawn) [Compound 0748]	> 8.00
CC(=O)O[C@@]12CO[C@@H]1C[C@H](O)[C@@]1(C)C(=O)[C@H](OC(=O)C3CC3)C3=C(C)[C@@H](OC(=O)[C@H](O)[C@H](C=C(C)C)NC(=O)OC(C)(C)C)C[C@@](O)([C@@H](OC(=O)c4ccccc4)C12)C3(C)C (stereo partly drawn) [Compound 0838]	> 9.00
CC(=O)O[C@@]12CO[C@@H]1C[C@H](O)[C@@]1(C)C(=O)[C@H](OC(=O)C3CC3)C3=C(C)[C@@H](OC(=O)[C@H](O)[C@@H](NC(=O)OC(C)(C)C)c4ccco4)C[C@@](O)([C@@H](OC(=O)c4ccccc4)C12)C3(C)C (stereo partly drawn) [Compound 0843]	> 9.00
CC(=O)O[C@@]12CO[C@@H]1C[C@H](O)[C@@]1(C)C(=O)[C@H](OC(=O)C3CC3)C3=C(C)[C@@H](OC(=O)[C@H](O)[C@@H](NC(=O)OC(C)(C)C)c4cccs4)C[C@@](O)([C@@H](OC(=O)c4ccccc4)C12)C3(C)C (stereo partly drawn) [Compound 0854]	> 9.00
CC(=O)O[C@@]12CO[C@@H]1C[C@H](O)[C@@]1(C)C(=O)[C@H](OC(=O)C3CC3)C3=C(C)[C@@H](OC(=O)[C@H](O)[C@@H](NC(=O)OC(C)(C)C)C4CC4)C[C@@](O)([C@@H](OC(=O)c4ccccc4)C12)C3(C)C (stereo partly drawn) [Compound 0860]	> 9.00
CC(=O)O[C@@]12CO[C@@H]1C[C@H](O)[C@@]1(C)C(=O)[C@H](OC(=O)C3CC3)C3=C(C)[C@@H](OC(=O)[C@H](O)[C@@H](NC(=O)OC(C)(C)C)c4ccc([N+](=O)[O-])cc4)C[C@@](O)([C@@H](OC(=O)c4ccccc4)C12)C3(C)C (stereo partly drawn) [Compound 0879]	> 9.00
CC(=O)O[C@@]12CO[C@@H]1C[C@H](O)[C@@]1(C)C(=O)[C@H](OC(=O)C3CC3)C3=C(C)[C@@H](OC(=O)[C@H](O)[C@@H](NC(=O)OC(C)(C)C)c4ccccc4)C[C@@](O)([C@@H](OC(=O)c4ccccc4)C12)C3(C)C (stereo partly drawn) [Compound 0882]	> 9.00
CC(=O)O[C@@]12CO[C@@H]1C[C@H](O)[C@@]1(C)C(=O)[C@H](OC(=O)C3CC3)C3=C(C)[C@@H](OC(=O)[C@H](O)[C@H](C=C(C)C)NC(=O)c4ccccc4)C[C@@](O)([C@@H](OC(=O)c4ccccc4)C12)C3(C)C (stereo partly drawn) [Compound 0890]	> 9.00
CC(=O)O[C@@]12CO[C@@H]1C[C@H](O)[C@@]1(C)C(=O)[C@H](OC(=O)C3CC3)C3=C(C)[C@@H](OC(=O)[C@H](O)[C@@H](NC(=O)c4ccccc4)c4ccco4)C[C@@](O)([C@@H](OC(=O)c4ccccc4)C12)C3(C)C (stereo partly drawn) [Compound 0908]	> 9.00
CC(=O)O[C@@]12CO[C@@H]1C[C@H](O)[C@@]1(C)C(=O)[C@H](OC(=O)C3CC3)C3=C(C)[C@@H](OC(=O)[C@H](O)[C@@H](NC(=O)c4ccccc4)c4cccs4)C[C@@](O)([C@@H](OC(=O)c4ccccc4)C12)C3(C)C (stereo partly drawn) [Compound 0919]	> 9.00

Reference: patent US7524869B2, “Taxanes having a C10 ester substituent” (Florida State University Research Foundation, Inc., priority 2000, dated 2009)
